Results: the supplement of paper PMC10331698
± gives the standard deviation of the averaged measurements.

Legend:
Assay in all cases: level (log10 ratio to DMSO vehicle control); higher = higher biomarker level / cell amount than vehicle control
Tetrafluorosuccinic acid = compound: O=C(O)C(F)(F)C(F)(F)C(=O)O [Tetrafluorosuccinic acid]; conditions: in DMSO
Method: (§1)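 BioMAP Diversity Plus panel of 12 human primary cell co-culture systems (3C, 4H, LPS, SAg, BT, BF4T, BE3C, CASM3C, HDF3CGF, KF3CT, MyoF, Mphg). Compounds were added 1 h before stimulation and left for 24 h (MyoF 48 h; BT 72 h for soluble read-outs or 6 d for IgG). Biomarkers were read by ELISA, cytotoxicity by SRB, PBMC viability and proliferation by Alamar Blue. Each well value was divided by the mean of 8 DMSO control wells on the same plate and log10 transformed; duplicate blinded samples were tested at 4 concentrations.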

[1] = compound: C=CC(=O)OCC(F)(F)C(F)(F)C(F)(F)C(F)(F)C(F)(F)C(F)(F)C(F)(F)C(F)F [1H,1H,9H-Perfluorononyl acrylate]; conditions: in DMSO
Method: as §1

[2] = compound: C=CC(=O)OCC(F)(F)C(F)(F)C(F)(F)C(F)(F)COC(=O)C=C [1H,1H,6H,6H-Perfluorohexane-1,6-diol diacrylate]; conditions: 6700 nM; in DMSO
Method: as §1

[3] = compound: OCC(F)(F)C(F)(F)C(F)(F)C(F)(F)C(F)(F)C(F)(F)F [6:1 Fluorotelomer alcohol]; conditions: in DMSO
Method: as §1

[4] = compound: O=C(CC(=O)C(F)(F)C(F)(F)C(F)(F)F)c1cccs1 [(Perfluorobutyryl)-2-thenoylmethane]; conditions: in DMSO
Method: as §1

Perfluorooctanoic acid = compound: O=C(O)C(F)(F)C(F)(F)C(F)(F)C(F)(F)C(F)(F)C(F)(F)C(F)(F)F [Perfluorooctanoic acid]; conditions: in DMSO
Method: as §1

[5] = compound: O=S(=O)(O)CCC(F)(F)C(F)(F)C(F)(F)C(F)(F)F [4:2 Fluorotelomer sulfonic acid]; conditions: in DMSO
Method: as §1

Test System	level (log10) (Tetrafluorosuccinic acid; 6700 nM)	level (log10) (Tetrafluorosuccinic acid; 20000 nM)	level (log10) (Tetrafluorosuccinic acid; 60000 nM)	level (log10) ([1]; 6700 nM)	level (log10) ([1]; 20000 nM)	level (log10) ([1]; 60000 nM)	level (log10) [2]	level (log10) ([3]; 6700 nM)	level (log10) ([3]; 20000 nM)	level (log10) ([3]; 60000 nM)	level (log10) ([4]; 6700 nM)	level (log10) ([4]; 20000 nM)	level (log10) (Perfluorooctanoic acid; 6700 nM)	level (log10) (Perfluorooctanoic acid; 20000 nM)	level (log10) (Perfluorooctanoic acid; 60000 nM)	level (log10) ([5]; 6700 nM)	level (log10) ([5]; 20000 nM)	level (log10) ([5]; 60000 nM)
BE3C:EGFR	-0.008 ± 0.0042	-0.0055 ± 0.019	0.003 ± 0.0042	-0.0025 ± 0.005	0.003 ± 0.0071	-0.014 ± 0.023	-0.034 ± 0.0099	0.0115 ± 0.0064	0.0035 ± 0.011	-0.0585 ± 0.081	-0.0725 ± 0.029	-0.094 ± 0.041	-0.0165 ± 0.012	-0.025 ± 0.011	-0.018 ± 0.037	0.0115 ± 0.00071	-0.009 ± 0.0014	0.002 ± 0.0085
3C:CD87/uPAR	-0.022 ± 0.024	-0.0085 ± 0.0078	-0.019 ± 0.033	0.012 ± 0.04	0.016 ± 0.013	0.017 ± 0.0099	0.0105 ± 0.029	-0.021	-0.01 ± 0.042	0 ± 0.0085	-0.148 ± 0.033	-0.07 ± 0.03	-0.0005 ± 0.0021	-0.0035 ± 0.005	-0.0425 ± 0.0021	-0.05 ± 0.047	-0.017 ± 0.069	0.002 ± 0.058
SAg:CCL2/MCP-1	-0.006 ± 0.02	-0.0095 ± 0.0035	-0.0085 ± 0.0064	-0.0425 ± 0.015	-0.0565 ± 0.005	-0.033 ± 0.13	-0.0875 ± 0.04	-0.002 ± 0.0057	-0.0085 ± 0.005	0.0175 ± 0.025	-0.06 ± 0.0042	-0.146 ± 0.0014	0.0005 ± 0.0021	0.0025 ± 0.011	0.048 ± 0.0057	0.007 ± 0.0085	0.0185 ± 0.0035	0.0105 ± 0.013
BE3C:CD54/ICAM-1	0.0015 ± 0.025	0.0065 ± 0.00071	0.0115 ± 0.00071	-0.01 ± 0.0042	-0.0095 ± 0.013	-0.0165 ± 0.011	-0.021 ± 0.024	0.0055 ± 0.019	-0.013 ± 0.016	0.0065 ± 0.0021	-0.0075 ± 0.0064	-0.102 ± 0.0064	-0.02 ± 0.0085	-0.0085 ± 0.0035	0.0235 ± 0.039	-0.004 ± 0.0085	-0.009 ± 0.014	-0.0155 ± 0.0021
3C:CXCL9/MIG	0.0025 ± 0.015	-0.0145 ± 0.012	0.0035 ± 0.028	0.009 ± 0.0028	0.0005 ± 0.011	-0.0055 ± 0.005	0.002 ± 0.0042	0.0065 ± 0.0035	0.0065 ± 0.0035	0.019	-0.0205 ± 0.012	-0.0255 ± 0.0021	0.001 ± 0.021	0.0095 ± 0.023	0.0265 ± 0.022	-0.0005 ± 0.005	0.005 ± 0.011	0.001 ± 0.014
SAg:CXCL9/MIG	-0.006 ± 0.0014	0.003	0.013 ± 0.0099	-0.0135 ± 0.0021	0.003 ± 0.0099	-0.0155 ± 0.0078	-0.009 ± 0.018	-0.0025 ± 0.021	-0.013 ± 0.018	-0.0055 ± 0.0092	-0.0075 ± 0.0035	-0.0245 ± 0.011	-0.0085 ± 0.0021	-0.008 ± 0.0028	0.004 ± 0.017	-0.0055 ± 0.013	-0.0075 ± 0.0064	0.0035 ± 0.005
SAg:CD40	0 ± 0.023	0.001 ± 0.0014	-0.018 ± 0.0071	-0.027 ± 0.021	-0.0725 ± 0.023	-0.133 ± 0.026	-0.0895 ± 0.023	-0.02 ± 0.023	-0.0075 ± 0.0021	-0.005 ± 0.033	-0.27 ± 0.11	-0.412 ± 0.093	0.002 ± 0.013	-0.017 ± 0.014	-0.0415 ± 0.012	-0.006 ± 0.0071	0.0015 ± 0.019	-0.0225 ± 0.039
BT:sIL-17F	0.0105 ± 0.026	0.0175 ± 0.043	-0.0215 ± 0.033	-0.175 ± 0.05	-0.483 ± 0.2	-0.84 ± 0.25	-0.816 ± 0.025	0.0105 ± 0.0035	-0.0465 ± 0.025	-0.388 ± 0.029	-0.114 ± 0.061	-0.45 ± 0.048	0.032 ± 0.04	0.0665 ± 0.11	0.095 ± 0.035	-0.0025 ± 0.0035	-0.009 ± 0.13	0.077 ± 0.021
BT:sIL-17A	-0.0215 ± 0.084	-0.0995 ± 0.00071	-0.074 ± 0.021	-0.174 ± 0.019	-0.509 ± 0.17	-1.28 ± 0.4	-0.863 ± 0.015	-0.063 ± 0.088	-0.107 ± 0.11	-0.475 ± 0.093	-0.135 ± 0.17	-0.524 ± 0.047	0.009 ± 0.048	-0.165 ± 0.11	-0.0845 ± 0.12	-0.127 ± 0.005	-0.078 ± 0.2	-0.116 ± 0.096
BF4T:CD90	-0.0115 ± 0.012	-0.015 ± 0.024	-0.017 ± 0.0042	-0.0085 ± 0.016	0.005 ± 0.0071	-0.022 ± 0.0071	-0.0265 ± 0.0021	0.0015 ± 0.0064	-0.011 ± 0.0014	0.0035 ± 0.0092	-0.014 ± 0.0085	-0.062 ± 0.027	-0.0095 ± 0.022	-0.006 ± 0.0028	-0.0105 ± 0.019	-0.0075 ± 0.0092	-0.018 ± 0.0042	-0.011 ± 0.014
4H:CCL2/MCP-1	-0.037 ± 0.021	-0.04 ± 0.028	-0.0055 ± 0.086	-0.0255 ± 0.0064	-0.0105 ± 0.028	0.0245 ± 0.019	-0.0235 ± 0.019	-0.005 ± 0.0071	-0.0135 ± 0.0035	0.002 ± 0.042	-0.0825 ± 0.0078	-0.249 ± 0.0042	-0.028 ± 0.0071	-0.0395 ± 0.013	-0.0555 ± 0.054	0.014 ± 0.0014	-0.0085 ± 0.028	0.019 ± 0.0071
BT:Secreted IgG	-0.0035 ± 0.033	0.0055 ± 0.011	0.0155 ± 0.0035	-0.011 ± 0.027	-0.0185 ± 0.039	-0.412 ± 0.43	-0.489 ± 0.25	0.004 ± 0.042	-0.0005 ± 0.04	-0.161 ± 0.14	-0.009 ± 0.018	-0.855 ± 0.016	0.0095 ± 0.026	-0.005 ± 0.013	-0.0165 ± 0.0078	0.006 ± 0.052	0.021 ± 0.061	0.0055 ± 0.054
BF4T:CCL2/MCP-1	-0.007 ± 0.0028	-0.0135 ± 0.0064	-0.0215 ± 0.016	-0.015 ± 0.047	-0.0035 ± 0.0035	0.0155 ± 0.026	-0.055 ± 0.02	0.0155 ± 0.015	-0.014 ± 0.028	0.0285 ± 0.015	-0.097 ± 0.018	-0.306 ± 0.093	0.0265 ± 0.018	0.015 ± 0.013	-0.0835 ± 0.039	0.0145 ± 0.037	0.0075 ± 0.00071	0.0395 ± 0.022
BE3C:CXCL11/I-TAC	0.002 ± 0.0042	-0.0025 ± 0.0092	-0.002 ± 0.0014	0.0045 ± 0.00071	0.0085 ± 0.013	-0.005 ± 0.0085	-0.0115 ± 0.0021	0.027 ± 0.0057	0.011 ± 0.017	0.008 ± 0.0099	-0.01	-0.28 ± 0.011	-0.0225 ± 0.032	-0.0225 ± 0.029	-0.0095 ± 0.016	0.008 ± 0.0042	0.043 ± 0.033	0.0485 ± 0.0092
3C:CXCL8/IL-8	-0.0265 ± 0.015	-0.0235 ± 0.012	-0.0005 ± 0.049	0.001 ± 0.03	0.02 ± 0.023	0.029 ± 0.033	0.017 ± 0.024	-0.0095 ± 0.013	0.0145 ± 0.011	0.055 ± 0.057	-0.112 ± 0.0035	-0.091 ± 0.014	0.0295 ± 0.035	0.0585 ± 0.026	0.154 ± 0.0057	-0.0175 ± 0.04	-0.011 ± 0.072	0.035 ± 0.1
